Patent US20260028374A1, “EPIDERMAL GROWTH FACTOR RECEPTOR INHIBITORS” (FILAMON LTD, priority 2023, published 2026)
Square brackets hold non-standard residues; d marks the D form. Peptide text beside a SMILES is read from it. 2Nal = N[C@@H](Cc1ccc2ccccc2c1)C(=O)O; d1Nal = N[C@H](Cc1cccc2ccccc12)C(=O)O

How the values were obtained:
H1975 = conditions: H1975, EGFR- L858R/T790M, cited from earlier work
H3255 = conditions: H3255, EGFR - L858R, cited from earlier work
SW48 and SW48G12V = experiment: Combination cell viability in isogenic CRC cell lines; type: cell-based; conditions: D1 0.001-100 μM with cetuximab 0.02-30 μg/mL, 72 hours
EGFR [1] = target: T1, EGFR (Homo sapiens, UniProt P00533); experiment: EGFR and lysotracker staining in A549 cells; type: cell-based; set-up: endogenous in cells; host or cells: A549; conditions: A549, 16 hours
Protocol: FIG. 5: (a) A549 cells were treated with DMSO (0.5%), EGF (50 ng/mL), or D1-D3 (1-100 μM) for 16 hours, before staining with lysotracker (red), fixing and staining with EGFR antibody (green). (b) EGFR signal, (c) EGFR membrane signal, (d) lysotracker signal and (e) EGFR speckle lysotracker signal (bars SEM) were quantified (n=3, >20 cells per replicate). Scale bars 20 μm.
To investigate the mechanism of how LYTAPS cause EGFR degradation, LYTAPs D1-D3 (1-100 μM) were incubated on A549 cells for 16 hours, with DMSO (0.5%) and high EGF (50 ng/mL) used as controls. Cells were then stained with Lysotracker, fixed and stained with EGFR-antibody. Under DMSO control, the majority of EGFR signal is present at the membrane (FIG. 5a).

pERK = pERK immunofluorescence in A549 cells after EGF stimulation; type: cell-based; conditions: A549, 100 μM for 16 hours, then EGF 10 ng/mL
Protocol: FIG. 6: A549 cells were treated with DMSO or D1-D3 (10-100 μM) for 16 hours before incubation with EGF (10 ng/mL) for 30 minutes, before cells were fixed and stained for pERK (green). Scale bars 20 μm, n=3, >20 cells per replicate.
To examine whether LYTAPs can inhibit EGFR downstream signalling, A549 cells were pre-incubated with 10-100 μM of D1-D3 for 16 hours, before stimulation with EGF (10 ng/mL) for […]. Cells were then fixed and immunofluorescently stained for pERK.

EGF-EGFR interaction = target: T2, EGF-EGFR interaction (Homo sapiens, UniProt P00533); experiment: EGF-EGFR AlphaLISA assay; type: binding; conditions: in vitro AlphaLISA; for inhibition of the EGF/EGFR interaction: 0.01-200 μM
T2 construct: purchased Perkin-Elmer
Protocol: FIG. 2. […] Representation of the molecules are as described in FIG. 1.
The AlphaLISA EGF/EGFR binding kit (Perkin-Elmer) was used as per the manufacturer's instructions. […] Finally, 5 μL of EGFR acceptor beads were added, and fluorescence imaged on a plate reader.

[2] = system: CRC and NSCLC cancer cell lines; experiment: Proliferation assays in CRC and NSCLC cancer cell lines
EGFR [3] = target: T1, EGFR; experiment: Western blot of EGFR in PC-3 cells; type: cell-based; conditions: PC-3, 100 μM, time course 3, 16, 24 and 48 hours
Protocol: (§1) FIG. 3. (a) PC-3 cells treated with DMSO (0.5%), FLM-c2 (100 μM), D1-D3 (100 μM) or EGF (50 ng/mL) for 24 h, detected for EGFR and GAPDH. (b) PC-3 cells tagged with EGFR-EGFP and lysotracker treated with DMSO (0.5%) or D3 (100 μM) for 24 h.
FIG. 4. (a) PC-3 cells were treated with D1-D3 (100 μM) for 3, 16, 24 and 48 hours. EGFR and ß-Actin ratio was detected. (b) the EGFR:ß-Actin ratio was plotted after normalising to DMSO control.
PC-3 cells were seeded in a 6 well plate at 200,000 cells/well overnight at 37° C. and 5% C02. Media was removed, cells were washed with PBS and serum free media added 1 hour before treatment with FLM-c2, D1-D3 for 3-48 hours. After treatment, media was removed and cells were washed with ice cold PBS. PBS was removed and cells were scraped into 1 mL of PBS containing 5.3 mM of EDTA and centrifuged at 2500 g for 2 min. PBS was removed and cells were lysed with lysis buffer (PBS, 0.1% NP-40, 0.1% sodium deoxycholate, 150 mM NaCl, 1 mM EDTA, 1 mM dithiothreitol, 1 mM phenylmethylsulfonyl fluoride, and IX protease inhibitor cocktail)^17 and mixed with RM-2L Intelli-mixer for 30 min at 4° C. Lysates were then centrifuged at 12,000 g for 20 min at 4° C. 20 μg of lysate was added to 4 μL of Bolt reducing agent and 10 μL of reducing buffer (both reagents supplied by Thermo Fisher Scientific) for a final volume of 40 μL with PBS. Samples were boiled and run on a gel, transferred to a membrane and blocked for 1 hour in 5% skim milk at 25° C. Membrane was probed with either EGFR antibody #2232, GAPDH antibody #2118 or BS-Actin antibody #4970 (Cell Signalling) at 1:1000 in 5% skim milk/TBST overnight at 4° C. Each membrane was washed three times with 50 mL TBST for 5 mins and then incubated with the relevant secondary α-rabbit IgG-HRP-linked antibody (1:1000), for 1 hour at room temperature. The membrane was washed as described above and imaged with the Licor Odyssey.

[4] = system: NSCLC cell lines H3255 and H1975; experiment: Combination cell viability in NSCLC cell lines; type: cell-based; conditions: H3255 and H1975, 72 hours
[5] = system: EGFR, Rab5 and hGIIA localisation; experiment: Live cell imaging of EGFR, Rab5 and hGIIA localisation in PC-3 cells; type: cell-based; conditions: PC-3, Lapatinib 5 μM, control for EGFR inhibition
Protocol: (e) PC-3 cells co-transfected with Rab5-mCherry (red), EGFR-GFP (green) and treated with hGIIA/AF647 (purple) as well as c2 at 1 μM and 10 μM for 24 hours. EGF (25 ng/mL) and Lapatinib (5 μM) were used as control treatments. N=3, >5 cells per replicate.
The effect of c2 on EGFR, Rab5 and hGIIA localisation was also examined in PC-3 cells. PC-3 cells were co-transfected with EGFR-EGFP and Rab5-mCherry before treatment with hGIIA/AF647 and c2 at 0, 1 and 10 μM.

EGFR [6] = target: T1, EGFR; experiment: Live cell imaging, EGFR-EGFP and lysotracker in PC-3 cells; type: cell-based; conditions: PC-3, EGFR-EGFP and lysotracker, 100 μM, 24 hours
Protocol: as §1
PC-3 cells were seeded in a 24 well glass-bottom plate at 50 000 cells/well and incubated overnight at 37° C. and 5% CO2. Complete media was removed, wells washed with 500 μL of warm PBS for 1 min then removed and 500 μL serum free medium was added and left to incubate for one hour at 37° C. and 5% CO2. Cells were co-transfected with plasmids encoding fusion protein EGFR-EGFP (Addgene plasmid #32751, a gift from Alexander Sorkin) using Lipofectamine 3000 (Thermo Fisher Scientific) as per the manufacturer's instructions. Cells were incubated for 48 hours at 37° C. and 5% CO2, after which transfection efficiency was determined through observation of EGFP and signal with a confocal microscope LSM 800 (Zeiss). LysoTracker far red (Thermo Fisher Scientific) was incubated at 1 μM for 37° C. and 5% CO2. Cells were washed three times with PBS and serum free media was added to cells, Either DMSO (0.5%) or D3 (100 μM) were added overnight at 37° C. and 5% CO2 before imaging on the confocal microscope LSM 800 (Zeiss).

[7] = read-out: Resistance (value in brackets)

T1 sequence (P00533 25-1210): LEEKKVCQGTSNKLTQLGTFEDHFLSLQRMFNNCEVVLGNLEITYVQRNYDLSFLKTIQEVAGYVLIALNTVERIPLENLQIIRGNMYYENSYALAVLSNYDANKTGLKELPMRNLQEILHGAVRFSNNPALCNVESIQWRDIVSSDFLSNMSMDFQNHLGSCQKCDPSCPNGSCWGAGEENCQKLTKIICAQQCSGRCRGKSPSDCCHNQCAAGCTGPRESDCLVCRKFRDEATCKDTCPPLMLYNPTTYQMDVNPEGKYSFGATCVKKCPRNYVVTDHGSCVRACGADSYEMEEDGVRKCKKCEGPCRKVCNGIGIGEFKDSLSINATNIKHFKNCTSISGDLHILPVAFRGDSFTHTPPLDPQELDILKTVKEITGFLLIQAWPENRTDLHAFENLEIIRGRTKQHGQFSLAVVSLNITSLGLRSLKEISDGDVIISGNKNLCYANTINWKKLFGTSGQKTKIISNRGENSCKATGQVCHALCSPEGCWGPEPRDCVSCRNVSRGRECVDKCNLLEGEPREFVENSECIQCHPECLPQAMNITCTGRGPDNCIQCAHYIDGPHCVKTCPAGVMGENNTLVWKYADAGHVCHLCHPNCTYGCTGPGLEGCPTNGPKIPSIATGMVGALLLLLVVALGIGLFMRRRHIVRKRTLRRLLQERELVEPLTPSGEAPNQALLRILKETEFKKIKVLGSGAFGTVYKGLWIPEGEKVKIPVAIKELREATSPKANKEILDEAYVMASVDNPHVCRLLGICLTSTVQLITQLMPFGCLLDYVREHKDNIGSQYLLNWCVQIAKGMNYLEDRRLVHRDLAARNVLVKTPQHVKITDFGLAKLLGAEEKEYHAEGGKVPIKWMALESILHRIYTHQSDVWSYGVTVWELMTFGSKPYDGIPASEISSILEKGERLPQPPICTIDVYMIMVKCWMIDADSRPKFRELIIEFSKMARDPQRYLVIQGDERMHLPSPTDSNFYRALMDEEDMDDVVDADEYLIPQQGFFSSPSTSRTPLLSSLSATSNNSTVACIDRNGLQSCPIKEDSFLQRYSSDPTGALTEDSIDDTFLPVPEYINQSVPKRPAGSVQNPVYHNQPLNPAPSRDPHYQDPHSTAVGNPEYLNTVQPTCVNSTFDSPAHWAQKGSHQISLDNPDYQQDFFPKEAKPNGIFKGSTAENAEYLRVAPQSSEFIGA
T2 sequence (P00533 25-645 limits assumed): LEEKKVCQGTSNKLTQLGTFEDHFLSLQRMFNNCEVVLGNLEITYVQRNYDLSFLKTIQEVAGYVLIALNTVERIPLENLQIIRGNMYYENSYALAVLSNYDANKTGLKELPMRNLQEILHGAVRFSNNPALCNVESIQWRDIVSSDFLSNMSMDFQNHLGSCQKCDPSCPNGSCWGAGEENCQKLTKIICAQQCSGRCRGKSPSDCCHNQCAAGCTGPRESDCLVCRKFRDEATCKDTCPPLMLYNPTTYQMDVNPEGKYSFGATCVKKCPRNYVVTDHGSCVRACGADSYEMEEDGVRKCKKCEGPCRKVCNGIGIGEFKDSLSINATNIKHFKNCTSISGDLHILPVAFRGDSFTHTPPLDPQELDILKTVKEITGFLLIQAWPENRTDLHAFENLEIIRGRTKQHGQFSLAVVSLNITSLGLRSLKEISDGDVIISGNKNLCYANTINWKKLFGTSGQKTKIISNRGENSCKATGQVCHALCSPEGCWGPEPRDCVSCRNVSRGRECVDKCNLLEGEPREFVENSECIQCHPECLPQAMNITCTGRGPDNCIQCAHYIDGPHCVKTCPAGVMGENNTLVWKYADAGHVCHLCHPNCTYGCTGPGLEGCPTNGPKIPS

Row | SMILES | lysotracker signal of endocytosed EGFR speckles (EGFR [1]; 1 μM) | EGFR signal (EGFR [1]; 1 μM, vs DMSO) | lysotracker signal (EGFR [1]; 100 μM) | lysotracker signal of endocytosed EGFR speckles (EGFR [1]; 100 μM) | potency order in inhibiting the EGF/EGFR interaction (EGF-EGFR interaction) | inhibition of the EGF/EGFR interaction (EGF-EGFR interaction) | recovery of EGFR levels (EGFR [3]) | also measured
1 | C#Cc1cccc(Nc2ncnc3cc(OCCOC)c(OCCOC)cc23)c1 [erlotinib] | – | – | – | – | – | – | – | Resistance (H1975): Erlotinib resistant; IC50 (H1975; [7]): 4300 nM; Resistance (H3255): Erlotinib sensitive; IC50 (H3255; [7]): 40 nM
2 | CC(C)C[C@@H]1NC(=O)[C@@H](Cc2cccc3ccccc23)NC(=O)[C@H](CCCNC(=N)N)NC(=O)[C@H](Cc2ccc3ccccc3c2)NC(=O)[C@H](CO)NC1=O [Compound D1, cyclo[(D-1Nal)-Leu-Ser-(L-2Nal)-Arg]] (cyclo([2Nal]R[d1Nal]LS)) | significantly increased lysotracker signal | significant reduction in EGFR signal | increased lysotracker signal | significantly increased lysotracker signal | FLM-c2>D1>D2>D3 | inhibited the EGF/EGFR interaction at high concentrations | returned to normal by 24 and 48 hours | synergy with cetuximab (SW48 and SW48G12V): significant synergy; fraction of membrane-localised EGFR signal (EGFR [1]; 100 μM, vs DMSO): significantly reduced; pERK signal, comparison among LYTAPs (pERK): largest effect; IC50 compared with c2, D2 and D3 ([2]; H3255, HCC827, H1975, HCT116, SW48, SW48G12V, HT29, RKO, 0.01-300 μM, 72 hours): lowest IC50 in all cell lines; efficacy in NSCLC cell lines sensitive and resistant to erlotinib ([2]; HCC827, H1975 and H3255): retained efficacy; efficacy in cetuximab sensitive and resistant cell lines ([2]; SW48 vs SW48G12V, HT29, HCT116 and RKO): comparable efficacy; synergy with cetuximab [4]: potent synergy; synergy with cetuximab, U0126 and chloroquine [4]: exhibited synergy with all three
3 | CC(C)C[C@@H]1NC(=O)[C@@H](Cc2ccccc2)NC(=O)[C@H](CCCNC(=N)N)NC(=O)[C@H](Cc2ccc3ccccc3c2)NC(=O)[C@H](CO)NC1=O [Compound D2, cyclo[(D-Phe)-Leu-Ser-(L-2Nal)-Arg]] (cyclo([2Nal]R[dF]LS)) | significantly increased lysotracker signal | significant reduction in EGFR signal | increased lysotracker signal | – | FLM-c2>D1>D2>D3 | inhibited the EGF/EGFR interaction at high concentrations | returned to normal by 24 and 48 hours | –
4 | CS(=O)(=O)CCNCc1ccc(-c2ccc3ncnc(Nc4ccc(OCc5cccc(F)c5)c(Cl)c4)c3c2)o1 [Lapatinib] | – | – | – | – | – | – | – | effect on EGFR, Rab5 and hGIIA localisation [5]: altering the localisation of hGIIA and Rab5 to become less punctate and more cytosolic
5 | CC(C)C[C@@H]1NC(=O)[C@@H](Cc2ccccc2)NC(=O)[C@H](CCCNC(=N)N)NC(=O)[C@H](Cc2ccccc2)NC(=O)[C@H](CO)NC1=O [Compound D3, cyclo[(D-Phe)-Leu-Ser-(L-Phe)-Arg)]] (cyclo(FR[dF]LS)) | – | significant reduction in EGFR signal | – | significantly increased lysotracker signal | FLM-c2>D1>D2>D3 | inhibited the EGF/EGFR interaction at high concentrations | – | colocalization of EGFR with lysosomes (EGFR [6]): confirmed colocalization of EGFR with lysosomes
